Converted amounts (≈) assume the structure as drawn.
Experiments:
[1] = test system: Mycobacterium tuberculosis; test: Antituberculosis activity against Mycobacterium tuberculosis H37Rv by Lowenstein-Jensen method; format: functional
Candida albicans [2] = test: Antifungal activity against Candida albicans MTCC 183 at 100 ug/disc by paper disc diffusion technique; format: functional; settings: read-out: IZ
Staphylococcus aureus [3] = test: Antibacterial activity against Staphylococcus aureus MTCC 96 by agar streak dilution method; format: functional
Shigella flexneri [4] = test: Antibacterial activity against Shigella flexneri MTCC 1457 by agar streak dilution method; format: functional
Shigella flexneri [5] = test: Antibacterial activity against Shigella flexneri MTCC 1457 at 100 ug/disc by paper disc diffusion technique; format: functional; settings: read-out: IZ
Candida albicans [6] = test: Antifungal activity against Candida albicans MTCC 183 by agar streak dilution method; format: functional
[7] = test system: Mycobacterium tuberculosis; test: Antituberculosis activity against Mycobacterium tuberculosis H37Rv by BACTEC MGIT method; format: functional
Proteus vulgaris [8] = test: Antibacterial activity against Proteus vulgaris MTCC 1771 at 100 ug/disc by paper disc diffusion technique; format: functional; settings: read-out: IZ
Escherichia coli [9] = test: Antibacterial activity against Escherichia coli MTCC 739 at 100 ug/disc by paper disc diffusion technique; format: functional; settings: read-out: IZ
Aspergillus niger [10] = test: Antifungal activity against Aspergillus niger MTCC 282 at 100 ug/disc by paper disc diffusion technique; format: functional; settings: read-out: IZ
Pseudomonas aeruginosa [11] = test: Antibacterial activity against Pseudomonas aeruginosa MTCC 741 by agar streak dilution method; format: functional
[12] = Lipophilicity, log P of the compound; format: physicochemical; settings: octanol/water
Bacillus cereus [13] = test: Antibacterial activity against Bacillus cereus MTCC 430 by agar streak dilution method; format: functional
Escherichia coli [14] = test: Antibacterial activity against Escherichia coli MTCC 739 by agar streak dilution method; format: functional
Bacillus cereus [15] = test: Antibacterial activity against Bacillus cereus MTCC 430 at 100 ug/disc by paper disc diffusion technique; format: functional; settings: read-out: IZ
Pseudomonas aeruginosa [16] = test: Antibacterial activity against Pseudomonas aeruginosa MTCC 741 at 100 ug/disc by paper disc diffusion technique; format: functional; settings: read-out: IZ
Aspergillus clavatus [17] = test: Antifungal activity against Aspergillus clavatus MTCC 1323 at 100 ug/disc by paper disc diffusion technique; format: functional; settings: read-out: IZ
Aspergillus fumigatus [18] = test: Antifungal activity against Aspergillus fumigatus MTCC 343 at 100 ug/disc by paper disc diffusion technique; format: functional; settings: read-out: IZ
[19] = test system: Mycobacterium tuberculosis; test: Antituberculosis activity against Mycobacterium tuberculosis H37Rv at 6.25 ug/ml by Lowenstein-Jensen method; format: functional
Salmonella typhi [20] = test: Antibacterial activity against Salmonella typhi MTCC 733 at 100 ug/disc by paper disc diffusion technique; format: functional, Salmonella enterica subsp. enterica serovar Typhi; settings: Salmonella enterica, read-out: IZ
Aspergillus fumigatus [21] = test: Antifungal activity against Aspergillus fumigatus MTCC 343 by agar streak dilution method; format: functional
Aspergillus clavatus [22] = test: Antifungal activity against Aspergillus clavatus MTCC 1323 by agar streak dilution method; format: functional
Salmonella typhi [23] = test: Antibacterial activity against Salmonella typhi MTCC 733 by agar streak dilution method; format: functional, Salmonella enterica subsp. enterica serovar Typhi; settings: Salmonella enterica
Klebsiella pneumoniae [24] = test: Antibacterial activity against Klebsiella pneumoniae MTCC 109 by agar streak dilution method; format: functional
Klebsiella pneumoniae [25] = test: Antibacterial activity against Klebsiella pneumoniae MTCC 109 at 100 ug/disc by paper disc diffusion technique; format: functional; settings: read-out: IZ
Proteus vulgaris [26] = test: Antibacterial activity against Proteus vulgaris MTCC 1771 by agar streak dilution method; format: functional
Staphylococcus aureus [27] = test: Antibacterial activity against Staphylococcus aureus MTCC 96 at 100 ug/disc by paper disc diffusion technique; format: functional; settings: read-out: IZ
Aspergillus niger [28] = test: Antifungal activity against Aspergillus niger MTCC 282 by agar streak dilution method; format: functional

Row | Compound | MIC [1] | zone of inhibition at 100 µg/disc (Candida albicans [2]) | MIC (Staphylococcus aureus [3]) | MIC (Shigella flexneri [4]) | zone of inhibition at 100 µg/disc (Shigella flexneri [5]) | MIC (Candida albicans [6]) | MIC [7] | zone of inhibition at 100 µg/disc (Proteus vulgaris [8]) | zone of inhibition at 100 µg/disc (Escherichia coli [9]) | zone of inhibition at 100 µg/disc (Aspergillus niger [10]) | MIC (Pseudomonas aeruginosa [11]) | MIC (Bacillus cereus [13]) | MIC (Escherichia coli [14]) | zone of inhibition at 100 µg/disc (Bacillus cereus [15]) | zone of inhibition at 100 µg/disc (Pseudomonas aeruginosa [16]) | zone of inhibition at 100 µg/disc (Aspergillus clavatus [17]) | zone of inhibition at 100 µg/disc (Aspergillus fumigatus [18]) | inhibition at 6.25 µg/mL [19] | zone of inhibition at 100 µg/disc (Salmonella typhi [20]) | MIC (Aspergillus fumigatus [21]) | further results
1 | Cc1ccc(NC(=O)CSc2nnc(Cn3cnc4ccccc43)o2)cc1 | 100 µg/mL (≈ 264 µM) | 14 mm | 100 µg/mL (≈ 264 µM) | 100 µg/mL (≈ 264 µM) | < 10 mm | 100 µg/mL (≈ 264 µM) | > 6.25 µg/mL | 14 mm | 14 mm | < 10 mm | 100 µg/mL (≈ 264 µM) | 100 µg/mL (≈ 264 µM) | 100 µg/mL (≈ 264 µM) | 13 mm | 14 mm | 12 mm | < 10 mm | 95% | 17 mm | 100 µg/mL (≈ 264 µM) | logP [12]: 2.98; MIC (Aspergillus clavatus [22]): 100 µg/mL (≈ 264 µM); MIC (Salmonella typhi [23]): 100 µg/mL (≈ 264 µM); MIC (Klebsiella pneumoniae [24]): 100 µg/mL (≈ 264 µM); zone of inhibition at 100 µg/disc (Klebsiella pneumoniae [25]): < 10 mm; MIC (Proteus vulgaris [26]): 100 µg/mL (≈ 264 µM); zone of inhibition at 100 µg/disc (Staphylococcus aureus [27]): 11 mm; MIC (Aspergillus niger [28]): 100 µg/mL (≈ 264 µM)
2 | CC(=O)Nc1ccc(NC(=O)CSc2nnc(Cn3cnc4ccccc43)o2)cc1 | 100 µg/mL (≈ 237 µM) | 18 mm | 100 µg/mL (≈ 237 µM) | 100 µg/mL (≈ 237 µM) | 16 mm | 100 µg/mL (≈ 237 µM) | > 6.25 µg/mL | 20 mm | 20 mm | 22 mm | 100 µg/mL (≈ 237 µM) | 100 µg/mL (≈ 237 µM) | 50 µg/mL (≈ 118 µM) | 11 mm | 19 mm | 18 mm | 15 mm | 95% | < 10 mm | 100 µg/mL (≈ 237 µM) | MIC (Aspergillus clavatus [22]): 100 µg/mL (≈ 237 µM); MIC (Salmonella typhi [23]): 100 µg/mL (≈ 237 µM); MIC (Klebsiella pneumoniae [24]): 100 µg/mL (≈ 237 µM); zone of inhibition at 100 µg/disc (Klebsiella pneumoniae [25]): 13 mm; MIC (Proteus vulgaris [26]): 25 µg/mL (≈ 59.2 µM); zone of inhibition at 100 µg/disc (Staphylococcus aureus [27]): < 10 mm; MIC (Aspergillus niger [28]): 25 µg/mL (≈ 59.2 µM)
3 | O=C(CSc1nnc(Cn2cnc3ccccc32)o1)Nc1nc2ccccc2s1 | 500 µg/mL (≈ 1180 µM) | 13 mm | 50 µg/mL (≈ 118 µM) | 100 µg/mL (≈ 237 µM) | 13 mm | 100 µg/mL (≈ 237 µM) | > 6.25 µg/mL | 17 mm | 15 mm | < 10 mm | 100 µg/mL (≈ 237 µM) | 100 µg/mL (≈ 237 µM) | 100 µg/mL (≈ 237 µM) | 14 mm | 12 mm | < 10 mm | < 10 mm | 94% | < 10 mm | 100 µg/mL (≈ 237 µM) | logP [12]: 3.69; MIC (Aspergillus clavatus [22]): 100 µg/mL (≈ 237 µM); MIC (Salmonella typhi [23]): 100 µg/mL (≈ 237 µM); MIC (Klebsiella pneumoniae [24]): 100 µg/mL (≈ 237 µM); zone of inhibition at 100 µg/disc (Klebsiella pneumoniae [25]): < 10 mm; MIC (Proteus vulgaris [26]): 100 µg/mL (≈ 237 µM); zone of inhibition at 100 µg/disc (Staphylococcus aureus [27]): 15 mm; MIC (Aspergillus niger [28]): 100 µg/mL (≈ 237 µM)
4 | O=C(CSc1nnc(Cn2cnc3ccccc32)o1)Nc1nc2ccc(Cl)cc2s1 | 62.5 µg/mL (≈ 137 µM) | 14 mm | 12.5 µg/mL (≈ 27.4 µM) | 6.25 µg/mL (≈ 13.7 µM) | 25 mm | 100 µg/mL (≈ 219 µM) | > 6.25 µg/mL | 20 mm | 20 mm | 16 mm | 25 µg/mL (≈ 54.7 µM) | 6.25 µg/mL (≈ 13.7 µM) | 50 µg/mL (≈ 109 µM) | 27 mm | 23 mm | 15 mm | 13 mm | 97% | 22 mm | 100 µg/mL (≈ 219 µM) | logP [12]: 4.25; MIC (Aspergillus clavatus [22]): 100 µg/mL (≈ 219 µM); MIC (Salmonella typhi [23]): 50 µg/mL (≈ 109 µM); MIC (Klebsiella pneumoniae [24]): 50 µg/mL (≈ 109 µM); zone of inhibition at 100 µg/disc (Klebsiella pneumoniae [25]): 20 mm; MIC (Proteus vulgaris [26]): 50 µg/mL (≈ 109 µM); zone of inhibition at 100 µg/disc (Staphylococcus aureus [27]): 22 mm; MIC (Aspergillus niger [28]): 100 µg/mL (≈ 219 µM)

Reference: ChEMBL document CHEMBL2034905, “Synthesis of benzimidazolyl-1,3,4-oxadiazol-2ylthio-N-phenyl (benzothiazolyl) acetamides as antibacterial, antifungal and antituberculosis agents” (Eur J Med Chem, 2012)
